The target of one experiment is T1, full-length SHP2 protein (Homo sapiens, UniProt Q06124).
T1 construct: Purified full-length SHP2 protein (Kamed Bio-Tianjin); purchased Kamed Bio-Tianjin
T1 sequence (Q06124 1-593): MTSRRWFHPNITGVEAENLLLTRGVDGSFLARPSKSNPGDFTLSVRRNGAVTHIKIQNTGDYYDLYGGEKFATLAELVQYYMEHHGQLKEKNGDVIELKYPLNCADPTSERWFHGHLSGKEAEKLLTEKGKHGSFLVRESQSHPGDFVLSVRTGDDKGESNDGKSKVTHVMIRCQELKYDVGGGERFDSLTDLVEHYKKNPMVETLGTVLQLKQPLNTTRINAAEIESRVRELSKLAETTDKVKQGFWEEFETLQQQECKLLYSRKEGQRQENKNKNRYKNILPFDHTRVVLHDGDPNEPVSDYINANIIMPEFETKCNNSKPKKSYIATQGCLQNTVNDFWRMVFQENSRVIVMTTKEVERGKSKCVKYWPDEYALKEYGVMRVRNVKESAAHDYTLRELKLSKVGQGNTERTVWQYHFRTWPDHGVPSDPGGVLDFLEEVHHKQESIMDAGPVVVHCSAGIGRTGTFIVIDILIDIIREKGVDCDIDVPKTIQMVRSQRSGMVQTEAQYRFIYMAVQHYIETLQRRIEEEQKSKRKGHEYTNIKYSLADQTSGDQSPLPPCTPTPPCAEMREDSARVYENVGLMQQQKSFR
The experiment is described as follows: In vitro SHP2 enzyme activity inhibition (DiFMUP substrate, SHP2 activating peptide). In kind it is biochemical. The note with it: full-length SHP2 protein with activating peptide, 8 concentrations, read-out: IC50 of compounds inhibiting SHP2 enzyme activity. As to the method: • a) Purified full-length SHP2 protein (Kamed Bio-Tianjin) • b) SHP2 activating peptide (BPS Bioscience). • c) DiFMUP. • d) Reaction buffer (120 mM HEPES pH 7.2, 200 mM NaCl, 1 mM EDTA, 0.002% Brij35), added with 0.04% BSA after autoclave, stored at 4° C.; diluted to 1× before use, and added with 2 mM DTT.
• a) The 384-well plates were filled with 10 uL solution of compound to be tested (No. 2), 3-fold gradient dilution, totaling 8 concentrations; • b) The sample wells to be tested were added with 5 uL of […] activating peptide (No. 4, 2 uM) and 5 uL of 4×full-length SHP2 protein (0.88 nM), control wells were free of inhibitor, and blank wells were free of SHP2 activating peptide and inhibitor; • c) 384-well plate was sealed, mixed well and incubated at room temperature for 1 hr; • d) After adding 5 uL 5×DiFMUP (125 uM), 384-well plate was sealed, mixed well and incubated at room temperature for 1 hr, and then detected by En Vision;
% Inhibition=[1−(RFUsample−RFUblank)/(RFUtotal−RFUblank)]×100
Non-linear regression analysis was performed using Graphpad 8.0, and the IC50 values for each compound were obtained by fitting a curve of enzyme activity with compound concentration through the equation Y=Bottom+(Top−Bottom)/(1+10^((LogIC50−X)*Hill Slope)).

In another experiment the test system is MV4-11 cells. The experiment is described as follows: Compound activity in MV4-11 cells (72 hr, cell viability by CTG method). It counts as cell-based. The note with it: Homo sapiens, 72 hr incubation. As to the method: MV4-11 cells in logarithmic growth phase were taken, prepared into cell suspension, inoculated in 96-well plates at 160 uL/well with an inoculation density of 5000 cells/well, and cultured overnight in a 37° C. cell culture incubator. A 5× solution of the compound to be tested was prepared with 4-fold gradient dilution, and a total of 8 concentrations with double duplicate wells. The solution of the compound to be tested was added into 96-well plate at 40 uL/well, and the blank and control wells were added with corresponding volume of solvent, shaken and mixed well, and then incubated in 37° C. cell incubator for 72 hr, and the cell viability was detected by CTG method.
Equation (Sample−blank)/(control−blank)*100% was used to convert raw data to inhibition rate, and the IC50 value could be obtained by curve fitting with four parameters (obtained with “log(inhibitor) vs. response—Variable slope” model in GraphPad Prism), and the results are shown in Table III. (In the table below, the following designations are used: <100 nM=A; 100-500 nM=B; >500 nM=C).

Some results are limits rather than exact numbers.

One may read the IC50 as the concentration that inhibits the measured activity by half. As to `C[C@@H]1OCC2(CCN(c3nc4cnn(-c5ccc6ccn(C)c6c5)c4nc3CO)CC2)[C@@H]1N` [Compound C12], the 50% inhibitory concentration (IC50) at full-length SHP2 protein is less than 0.05 µM; with MV4-11 cells it was less than 0.1 µM.

As to `C[C@@H]1OCC2(CCN(c3nc4cnn(-c5ccc6cn(C)nc6c5)c4nc3CO)CC2)[C@@H]1N` [Compound C14], the IC50 at full-length SHP2 protein is less than 0.05 µM.

On to `C[C@@H]1OCC2(CCN(c3nc4cnn(-c5ccc6c(cnn6C)c5)c4nc3CO)CC2)[C@@H]1N` [Compound C11], for which the values for the IC50 at full-length SHP2 protein and in the experiment with MV4-11 cells were less than 0.05 µM and less than 0.1 µM, respectively.

In the case of `CCn1ncc2ccc(-n3ncc4nc(N5CCC6(CC5)CO[C@@H](C)[C@H]6N)c(CO)nc43)cc21` [Compound C18], at full-length SHP2 protein, the IC50 was less than 0.05 µM.

With `Cc1nc(N2CCC3(CC2)CO[C@@H](C)[C@H]3N)c(CO)nc1Sc1ccnc(N)c1Cl` [RMC-4630, reference compound], the IC50 is less than 0.05 µM on full-length SHP2 protein and less than 0.1 µM with MV4-11 cells.

Take `C[C@@H]1OCC2(CCN(c3nc4cnn(-c5ccc6cn[nH]c6c5)c4nc3CO)CC2)[C@@H]1N` [Compound C15]: the IC50 at full-length SHP2 protein was less than 0.05 µM; with MV4-11 cells, less than 0.1 µM.

As to `C[C@@H]1OCC2(CCN(c3nc4cnn(-c5ccc6nnn(C)c6c5)c4nc3CO)CC2)[C@@H]1N` [Compound C17], the values for the IC50 at full-length SHP2 protein and in the experiment on MV4-11 cells were less than 0.05 µM and less than 0.1 µM, respectively.

As to `C[C@@H]1OCC2(CCN(c3nc4cnn(-c5ccnc(N)c5Cl)c4nc3CO)CC2)[C@@H]1N` [WO2021148010A1 Example 5, reference compound], the figures for the IC50 on full-length SHP2 protein and in the experiment with MV4-11 cells were 0.05 to 0.5 µM and 0.1 to 0.5 µM, respectively.

Regarding `C[C@@H]1OCC2(CCN(c3nc4cnn(-c5ccc6cnn(C)c6c5)c4nc3C(F)F)CC2)[C@@H]1N` [Compound C16], at full-length SHP2 protein, the IC50 is less than 0.05 µM.

In the case of `C[C@@H]1OCC2(CCN(c3nc4cnn(-c5cccc6c5CCN6C)c4nc3CO)CC2)[C@@H]1N` [Compound C13], the IC50 on full-length SHP2 protein is less than 0.05 µM.

For `C[C@@H]1OCC2(CCN(c3nc4cnn(-c5ccc6cnn(C)c6c5)c4nc3CO)CC2)[C@@H]1N` [Compound C4], the IC50 was less than 0.05 µM on full-length SHP2 protein and less than 0.1 µM in the experiment on MV4-11 cells.

Turning to `C[C@@H]1OCC2(CCN(c3nc4cnn(-c5ccc6nn(C)cc6c5Cl)c4nc3CO)CC2)[C@@H]1N` [Compound C6], the IC50 is less than 0.05 µM at full-length SHP2 protein and less than 0.1 µM with MV4-11 cells.

Take `C[C@@H]1OCC2(CCN(c3nc4cnn(-c5cccc6c5ccn6C)c4nc3CO)CC2)[C@@H]1N` [Compound C5]: the IC50 is less than 0.05 µM on full-length SHP2 protein and less than 0.1 µM in the experiment on MV4-11 cells.

These data come from US20240190887A1, “COMPOUND USED AS SHP2 INHIBITOR AND USE THEREOF” (TYK MEDICINES, INC., priority 2021, published 2024).
